One assay has as its target T1, GRIP PDZ4-6 (Rattus norvegicus, UniProt P97879).
T1 construct: corresponding to GRIP1 (amino acid 448-792); made in house; host or cells: E. coli BL21
T1 sequence (P97879 448-792): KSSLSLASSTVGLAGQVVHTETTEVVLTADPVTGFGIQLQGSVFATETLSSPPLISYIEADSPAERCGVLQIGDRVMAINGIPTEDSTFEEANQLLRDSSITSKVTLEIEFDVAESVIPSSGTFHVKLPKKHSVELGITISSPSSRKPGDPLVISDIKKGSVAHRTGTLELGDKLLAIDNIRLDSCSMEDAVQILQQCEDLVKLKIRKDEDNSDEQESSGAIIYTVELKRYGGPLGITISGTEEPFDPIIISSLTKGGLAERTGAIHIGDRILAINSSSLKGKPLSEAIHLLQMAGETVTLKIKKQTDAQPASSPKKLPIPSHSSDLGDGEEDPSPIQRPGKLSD
In words: Competitive binding of 35S-EphB2 to His-GRIP-PDZ4-6. The note with it: 35S-EphB2 50 nM; fitted to the Hill equation; read-out: Ki, displacement of 35S-EphB2 binding to His-GRIP-PDZ 4-6. How it is done:
A competitive binding assay was prepared to determine if the LTP inhibitory effects of the GluR2ct peptide were mediated through disruption of binding between Eph receptors and PDZ domain 6 of GRIP (Torres et al., Neuron 21, 1453-63. (1998)) as opposed to disruption of binding between the GluR2 subunit and the GluR2-binding PDZ 4 and 5 domains of GRIP (Dong et al., Nature 386, 279-84. (1997)). For this purpose, a binding assay was established between GRIP PDZ domain fragments (His-GRIP-PDZ4-6) and an EphB2 carboxy terminal fusion protein labeled with ^35S-methionine (^35S-EphB2).
(§1) Briefly, the carboxy terminal region of EphB2 corresponding to mouse EphB2 receptor (amino acid 930-993) was generated by PCR from mouse brain library and subcloned into pGEX2TK (Pharmacia). The GRIP(PDZ4-6) construct, corresponding to GRIP1 (amino acid 448-792) was obtained by PCR from an adult rat hippocampal library and subcloned into pRSET vector. E coli (strain BL21) were transformed with His-GRIP(PDZ4-6) and GST-EphB2 and protein production induced with IPTG. GST-EphB2 protein was purified on glutathionine beads and ^35S-EphB2 cleaved from GST with thrombin (1 U/μg). GRIP(PDZ4-6) protein was purified on Ni-NTA agarose, and eluted with imadazole. ^35S-EphB2 (50 nM) was incubated with (15 μg) of His-GRIP(PDZ4-6) protein in PBS buffer with protease inhibitors for 2 hrs at 22° C. in the absence or presence of peptides. ^35S-EphB2 binding to His-GRIP(PDZ4-6) was determined after a 45 min incubation with Ni-NTA agarose and vacuum filtration onto Whatman GFB filter circles (pretreated with 3% BSA). Filters were washed with ice-cold PBS buffer, allowed to equilibrate overnight in ECOLUME scintillation cocktail (ICN pharmaceuticals, Irvine Calif.), and specific counts measured in a scintillation counter. Non-specific binding was defined as the residual binding measured in the absence of His-GRIP(PDZ4-6).

For assay [1], the system named is mossy fiber synapses of hippocampal CA3 pyramidal neurons. The assay can be described thus: Mossy fiber LTP, whole-cell patch clamp in hippocampal slices. In kind it is cell-based, mice. How it is done:
The role of the GluR2 subunit in LTP at mossy fiber terminals was evaluated in whole cell patch clamp experiments using hippocampal CA3 pyramidal neurons. Briefly, transverse hippocampal slices (350 μm) were made from P12-18 mice (strain 129SvEv) as previously described (Contractor et al., Neuron 29, 209-16. (2001)). Slices were transferred to a recording chamber, and whole-cell patch clamp recordings made from visually identified pyramidal cells in the CA3 region of the hippocampus. The recording electrode (i.e., patch electrode) is filled with an “internal” solution described below. A seal between the glass of the electrode and the membrane of the cell is made. The seal is then “broken through” by pushing the electrode through the membrane to gain low resistance access to the cell interior and enable voltage clamping of the cell membrane. This also allows dialysis of the cell with test reagents such as peptides and antibodies. A stimulating electrode is attached to a current source and allows current to stimulate action potentials while a reference electrode is placed in the recording bath. The composition of the internal solution was: 95 mM CsF, 25 mM CsCl, 10 mM Cs-HEPES, 10 mM Cs-EGTA, 2 mM NaCl, 2 mM Mg-ATP, 10 mM QX-314, 5 mM TEA-Cl, 5 mM 4-AP, pH adjusted to 7.3 with CsOH.
Peptides were added directly to the internal solution on the day of the experiment from frozen stocks in protease inhibitors made up in phosphate buffered saline (PBS). To avoid leakage of peptides or antibodies into the extracellular space, pipette tips were filled with normal internal solution and then the pipette was backfilled with peptide/antibody containing internal fluid. The final concentration of peptides was 50 μM in all experiments. The final concentration of protease inhibitors were: bestatin 2 μg/ml, leupeptin 25 ng/ml, pepstatin 35 ng/ml, aprotinin 100 ng/ml.
In control experiments where peptides were not included, internal solutions were made up in exactly the same way with protease inhibitors in PBS but lacking any added peptide. Antibodies were made up in PBS stock and added directly to the internal solution at a final concentration of 20 μg/ml. The pH and osmolarity of all internal solutions were checked before use. Series resistances (Rs) were generally <10M and were continuously monitored throughout the duration of the experiment. […] Experiments using mutant mice were performed with heterozygous breedings blind to the genotype of the animal.
Mossy fiber EPSCs were evoked with a monopolar glass electrode positioned in the stratum lucidum. EPSCs were evaluated using a 40 ms interval between recordings. All recordings were made in the continuous presence of bicuculline (10 μM), picrotoxin (50 μM) and the NMDA receptor antagonist D-AP5 [D(-)-2-Amino-5-phosphonopentanoic acid; 50 μM]. The group II mGluR agonist, LCCG-1 (10 μM), which selectively depresses mossy fiber transmission, was applied at the end of each experiment. LTP was induced by tetanic stimulation comprising three 1 s stimulations (100 Hz) with a 10 s interval. Data are presented as mean±SEM. Parameters were compared using the Student's unpaired t-test where not specified, and the K-S test, p<0.05 was considered significant.
Cumulative probability is determined by ranking the EPSC data set from the highest to the lowest value from 20 to 30 minutes post tetanization. Each point is graphed with its corresponding percentile. […] The lowest LTP value was about 40% signified by the lowest point on the 1 st graph (open circles) and the largest LTP was about 160%.

For a further assay, the target named is T2, GRIP PDZ 6 domain (Rattus norvegicus, UniProt P97879).
T2 construct: a GRIP fragment containing only the PDZ 6 domain; made in house; host or cells: E. coli BL21 (inferred from the PDZ4-6 construct)
T2 sequence (P97879 672-754 limits assumed): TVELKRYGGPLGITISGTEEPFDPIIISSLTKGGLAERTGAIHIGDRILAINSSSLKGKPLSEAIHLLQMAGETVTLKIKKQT
In words: Competitive binding of 35S-EphB2 to His-GRIP-PDZ6.
Source text: as §1, with “His-GRIP(PDZ4-6). […]” for “His-GRIP(PDZ4-6).”

The target in another assay is T3, His-GRIP(PDZ4-6) (rat, UniProt P97879 448-792).
T3 construct: range 448-792; not shown: His tag and vector residues from pRSET
T3 sequence (looked up): T1 sequence (P97879 448-792)
The assay can be described thus: displacement of ^35S-EphB2 (50 nM) from His-GRIP-PDZ4-6, Hill fit.

In the next assay the target is EphA4 (Homo sapiens, UniProt P54764). The note with it: read-out: Kd for binding to EphA4; cited from earlier work.
For another assay, the target named is T4, EphA8 (Mus musculus, UniProt O09127).
T4 sequence (O09127 27-1004): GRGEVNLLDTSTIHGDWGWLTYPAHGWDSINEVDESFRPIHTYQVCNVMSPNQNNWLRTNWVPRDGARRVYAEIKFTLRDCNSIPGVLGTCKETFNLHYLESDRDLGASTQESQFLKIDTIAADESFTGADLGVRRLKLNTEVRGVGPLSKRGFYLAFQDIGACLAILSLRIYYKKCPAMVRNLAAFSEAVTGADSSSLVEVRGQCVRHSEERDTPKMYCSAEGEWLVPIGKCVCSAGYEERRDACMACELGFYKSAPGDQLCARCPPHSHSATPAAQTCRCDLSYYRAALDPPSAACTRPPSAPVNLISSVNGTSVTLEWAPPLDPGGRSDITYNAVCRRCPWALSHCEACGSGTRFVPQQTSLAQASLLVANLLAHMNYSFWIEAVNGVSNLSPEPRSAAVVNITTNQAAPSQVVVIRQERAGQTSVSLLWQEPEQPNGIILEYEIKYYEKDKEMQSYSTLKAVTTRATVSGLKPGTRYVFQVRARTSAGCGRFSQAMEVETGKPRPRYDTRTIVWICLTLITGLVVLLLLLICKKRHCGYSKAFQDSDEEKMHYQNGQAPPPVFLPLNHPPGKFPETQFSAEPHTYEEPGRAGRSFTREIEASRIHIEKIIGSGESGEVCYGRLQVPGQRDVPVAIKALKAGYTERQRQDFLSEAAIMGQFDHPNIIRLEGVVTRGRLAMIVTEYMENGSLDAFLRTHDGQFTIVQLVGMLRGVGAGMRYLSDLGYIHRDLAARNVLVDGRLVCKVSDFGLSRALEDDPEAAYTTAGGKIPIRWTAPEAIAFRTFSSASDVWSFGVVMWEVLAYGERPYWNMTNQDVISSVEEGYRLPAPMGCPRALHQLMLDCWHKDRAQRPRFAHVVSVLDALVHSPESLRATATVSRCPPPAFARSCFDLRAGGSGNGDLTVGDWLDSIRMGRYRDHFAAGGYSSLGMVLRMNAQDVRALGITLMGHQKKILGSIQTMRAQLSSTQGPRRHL
The note with it: read-out: Kd for binding to EphA8; cited from earlier work.

A further assay has as its target EphA3. The note with it: read-out: Kd for binding to EphA3; cited from earlier work.
[2] abbreviates: peptide 50 μM in patch electrode, 40 ms interval.

Entries after “also recorded” stand apart in the source; their conditions may differ. Ends that are not written are not given here.

Chain of EphA4 (P54764 20-986, species assumed): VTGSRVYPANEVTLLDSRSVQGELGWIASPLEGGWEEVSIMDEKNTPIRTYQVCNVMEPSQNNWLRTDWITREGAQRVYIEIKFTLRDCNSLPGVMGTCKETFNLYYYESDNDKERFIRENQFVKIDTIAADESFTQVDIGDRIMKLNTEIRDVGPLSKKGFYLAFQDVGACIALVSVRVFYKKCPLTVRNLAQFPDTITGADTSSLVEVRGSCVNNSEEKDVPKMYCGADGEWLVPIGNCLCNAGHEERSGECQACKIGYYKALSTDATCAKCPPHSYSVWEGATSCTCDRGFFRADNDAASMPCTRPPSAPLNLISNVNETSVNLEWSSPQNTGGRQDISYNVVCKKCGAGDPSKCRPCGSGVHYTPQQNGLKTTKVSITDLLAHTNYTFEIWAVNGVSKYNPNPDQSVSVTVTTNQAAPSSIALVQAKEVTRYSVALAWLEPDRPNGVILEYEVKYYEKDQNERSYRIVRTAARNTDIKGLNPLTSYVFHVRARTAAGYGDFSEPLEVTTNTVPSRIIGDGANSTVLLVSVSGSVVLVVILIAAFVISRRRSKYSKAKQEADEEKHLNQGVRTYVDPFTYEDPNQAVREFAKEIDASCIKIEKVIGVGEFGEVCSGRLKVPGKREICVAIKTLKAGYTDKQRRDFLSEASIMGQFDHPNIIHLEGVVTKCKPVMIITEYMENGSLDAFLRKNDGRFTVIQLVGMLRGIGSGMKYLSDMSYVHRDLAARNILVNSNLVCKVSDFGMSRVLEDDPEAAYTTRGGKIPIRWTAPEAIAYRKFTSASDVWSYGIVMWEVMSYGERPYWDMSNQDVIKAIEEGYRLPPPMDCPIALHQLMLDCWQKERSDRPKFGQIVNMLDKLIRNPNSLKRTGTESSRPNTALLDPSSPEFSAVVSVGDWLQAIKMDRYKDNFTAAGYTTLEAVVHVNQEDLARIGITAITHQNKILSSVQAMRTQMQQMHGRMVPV

As for “NVYGIESVKI [GluR2ct, Asn-Val-Tyr-Gly-Ile-Glu-Ser-Val-Lys-Ile]”, the Ki (commonly the equilibrium dissociation constant of an inhibitor or competing ligand from its target) on GRIP PDZ4-6 was found to be 106 nM. For the same molecule, in assay [1] (peptide 50 μM in patch electrode (postsynaptic), 25 to 30 minutes after tetanic stimulation), the “LTP (potentiation of the EPSC after tetanic stimulation)” value worked out at 140±11%. Also, in assay [1] (setting [2]), the “LTP PPR (paired pulse ratio after LTP induction)” value was found to be 2.5±0.12 and the “control PPR (paired pulse ratio before LTP induction)” value turned out to be 2.8±0.14. Besides, the “PTP (post-tetanic potentiation)” value in assay [1] (peptide 50 μM in patch electrode, immediately following tetanic stimulation) was found to be 510±67%. Besides, in assay [1] (peptide in patch electrode), the “effect on basal synaptic transmission / basal EPSC amplitudes” value is recorded as “small effect on basal synaptic transmission in some neurons” and the “paired pulse ratio after LTP induction versus pretetanic” value is recorded as “no significant difference after induction of LTP”. In addition, the “effect on tetanus induced LTP” value in assay [1] (peptide in patch electrode (postsynaptic)) was “little potentiation was observed; also recorded: significantly less potentiation; also recorded: inhibit mossy fiber hippocampal CA3 neuronal LTP”. For the same molecule, the “displacement of EphB2 from / binding to GRIP PDZ domain 6” value on GRIP PDZ 6 domain was “binds directly to PDZ domain 6 of GRIP; also recorded: can displace EphB2”. The Ki at GRIP PDZ 6 domain (read-out: Ki, displacement of 35S-EphB2 binding to His-GRIP-PDZ6) came to 155 nM.
Turning to QMNQIQSVEV (also called EphB2 peptide) [EphB2 carboxy terminal peptide], in the assay with His-GRIP(PDZ4-6), affinity was put at a Ki of 43 nM.

B1: ephrin-A2: a 213 amino acid protein; ephrin ligand (protein, UniProt O43921 1-213, looked up)
chain: MAPAQRPLLPLLLLLLPLPPPPFARAEDAARANSDRYAVYWNRSNPRFHAGAGDDGGGYTVEVSINDYLDIYCPHYGAPLPPAERMEHYVLYMVNGEGHASCDHRQRGFKRWECNRPAAPGGPLKFSEKFQLFTPFSLGFEFRPGHEYYYISATPPNAVDRPCLRLKVYVRPTNETLYEAPEPIFTSNNSCSSPGGCRLFLSTIPVLWTLLGS
modifications: full-length
notes: a 213 amino acid protein; ephrin ligand
In the case of B1, the Kd (commonly the equilibrium constant for the complex coming apart) was 10 nM in the assay with EphA4, 1.3 nM with EphA8 and 1 nM at EphA3.

B2: ephrin-A3: a 238 amino acid polypeptide; ephrin ligand (protein, UniProt P52797 1-238, looked up)
chain: MAAAPLLLLLLLVPVPLLPLLAQGPGGALGNRHAVYWNSSNQHLRREGYTVQVNVNDYLDIYCPHYNSSGVGPGAGPGPGGGAEQYVLYMVSRNGYRTCNASQGFKRWECNRPHAPHSPIKFSEKFQRYSAFSLGYEFHAGHEYYYISTPTHNLHWKCLRMKVFVCCASTSHSGEKPVPTLPQFTMGPNVKINVLEDFEGENPQVPKLEKSISGTSPKREHLPLAVGIAFFLMTFLAS
modifications: full-length
notes: a 238 amino acid polypeptide; ephrin ligand
Regarding B2, the Kd is 1.1 nM with EphA8 and 5 nM at EphA3.

Source of the values: patent US20040241754A1, “Modulating neuronal plasticity” (The Salk Institute for Biological Studies, priority 2003, published 2004).
